# Source: ChEMBL document CHEMBL2074266, “Molecular cloning and characterization of multispecific organic anion transporter 4 expressed in the placenta” (J Biol Chem, 2000)
# T1: Solute carrier family 22 member 11 (Homo sapiens, UniProt Q9NSA0)
# T1 sequence (Q9NSA0 whole entry): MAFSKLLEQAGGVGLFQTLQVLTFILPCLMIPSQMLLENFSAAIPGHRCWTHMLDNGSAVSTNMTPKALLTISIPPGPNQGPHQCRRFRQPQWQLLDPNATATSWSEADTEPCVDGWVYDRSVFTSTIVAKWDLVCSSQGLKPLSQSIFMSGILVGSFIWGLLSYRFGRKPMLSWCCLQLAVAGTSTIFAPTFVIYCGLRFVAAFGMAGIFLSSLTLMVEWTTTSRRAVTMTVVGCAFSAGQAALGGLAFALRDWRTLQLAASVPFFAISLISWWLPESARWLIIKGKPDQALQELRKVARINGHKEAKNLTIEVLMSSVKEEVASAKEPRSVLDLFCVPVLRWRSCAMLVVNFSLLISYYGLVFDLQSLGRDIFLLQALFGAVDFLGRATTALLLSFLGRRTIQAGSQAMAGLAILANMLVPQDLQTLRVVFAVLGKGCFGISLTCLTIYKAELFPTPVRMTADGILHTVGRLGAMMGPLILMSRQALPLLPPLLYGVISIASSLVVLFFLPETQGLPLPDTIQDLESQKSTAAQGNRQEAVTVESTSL
# B1: Solute carrier family 22 member 11 (Homo sapiens) (protein)
# chain: MAFSKLLEQAGGVGLFQTLQVLTFILPCLMIPSQMLLENFSAAIPGHRCWTHMLDNGSAVSTNMTPKALLTISIPPGPNQGPHQCRRFRQPQWQLLDPNATATSWSEADTEPCVDGWVYDRSVFTSTIVAKWDLVCSSQGLKPLSQSIFMSGILVGSFIWGLLSYRFGRKPMLSWCCLQLAVAGTSTIFAPTFVIYCGLRFVAAFGMAGIFLSSLTLMVEWTTTSRRAVTMTVVGCAFSAGQAALGGLAFALRDWRTLQLAASVPFFAISLISWWLPESARWLIIKGKPDQALQELRKVARINGHKEAKNLTIEVLMSSVKEEVASAKEPRSVLDLFCVPVLRWRSCAMLVVNFSLLISYYGLVFDLQSLGRDIFLLQALFGAVDFLGRATTALLLSFLGRRTIQAGSQAMAGLAILANMLVPQDLQTLRVVFAVLGKGCFGISLTCLTIYKAELFPTPVRMTADGILHTVGRLGAMMGPLILMSRQALPLLPPLLYGVISIASSLVVLFFLPETQGLPLPDTIQDLESQKSTAAQGNRQEAVTVESTSL
# Columns and labels:
# [1] = target: T1, Solute carrier family 22 member 11; experiment: TP_TRANSPORTER: inhibition of E1S uptake (E1S: 0.05 uM, beta-estradiol sulfate: 500 uM) in Xenopus laevis oocytes; format: functional, cell-based; settings: oocyte
# [2] = target: T1, Solute carrier family 22 member 11; experiment: TP_TRANSPORTER: inhibition of E1S uptake (E1S: 0.05 uM, Estradiol-3-glucuronide: 500 uM) in Xenopus laevis oocytes; format: functional, cell-based; settings: oocyte
# [3] = target: T1, Solute carrier family 22 member 11; experiment: TP_TRANSPORTER: inhibition of E1S uptake (E1S: 0.05 uM, alpha-naphthyl beta-D-glucuronide: 500 uM) in Xenopus laevis oocytes; format: functional, cell-based; settings: oocyte
# [4] = target: T1, Solute carrier family 22 member 11; experiment: TP_TRANSPORTER: inhibition of E1S uptake (E1S: 0.05 uM, 4-methylumbelliferyl sulfate: 500 uM) in Xenopus laevis oocytes; format: functional, cell-based; settings: oocyte
# [5] = target: T1, Solute carrier family 22 member 11; experiment: TP_TRANSPORTER: inhibition of E1S uptake (E1S: 0.05 uM, 4-methylumbeliferone glucuronide: 500 uM) in Xenopus laevis oocytes; format: functional, cell-based; settings: oocyte
# [6] = target: T1, Solute carrier family 22 member 11; experiment: TP_TRANSPORTER: inhibition of E1S uptake (E1S: 0.05 uM, p-Nitrophenyl glucuronide: 500 uM) in Xenopus laevis oocytes; format: functional, cell-based; settings: oocyte
# [7] = target: T1, Solute carrier family 22 member 11; experiment: (§1) TP_TRANSPORTER: uptake in Xenopus laevis oocytes; format: functional, cell-based; settings: oocyte
# [8] = target: T1, Solute carrier family 22 member 11; experiment: TP_TRANSPORTER: inhibition of E1S uptake (E1S: 0.05 uM, Acetaminophen glucuronide: 500 uM) in Xenopus laevis oocytes; format: functional, cell-based; settings: oocyte
# [9] = target: T1, Solute carrier family 22 member 11; experiment: TP_TRANSPORTER: inhibition of E1S uptake (E1S: 0.05 uM, Bumetanide: 500 uM) in Xenopus laevis oocytes; format: functional, cell-based; settings: oocyte
# [10] = target: T1, Solute carrier family 22 member 11; experiment: TP_TRANSPORTER: inhibition of E1S uptake (E1S: 0.05 uM, Corticosterone: 500 uM) in Xenopus laevis oocytes; format: functional, cell-based; settings: oocyte
# [11] = target: T1, Solute carrier family 22 member 11; experiment: TP_TRANSPORTER: inhibition of E1S uptake (E1S: 0.05 uM, Diclofenac: 500 uM) in Xenopus laevis oocytes; format: functional, cell-based; settings: oocyte
# [12] = target: T1, Solute carrier family 22 member 11; experiment: TP_TRANSPORTER: inhibition of E1S uptake (E1S: 0.05 uM, beta-Estradiol: 500 uM) in Xenopus laevis oocytes; format: functional, cell-based; settings: oocyte
# [13] = target: T1, Solute carrier family 22 member 11; experiment: TP_TRANSPORTER: inhibition of E1S uptake (E1S: 0.05 uM, Furosemide: 500 uM) in Xenopus laevis oocytes; format: functional, cell-based; settings: oocyte
# [14] = target: T1, Solute carrier family 22 member 11; experiment: TP_TRANSPORTER: inhibition of E1S uptake (E1S: 0.05 uM, Glutarate: 500 uM) in Xenopus laevis oocytes; format: functional, cell-based; settings: oocyte
# [15] = target: T1, Solute carrier family 22 member 11; experiment: TP_TRANSPORTER: inhibition of E1S uptake (E1S: 0.05 uM, Ibuprofen: 500 uM) in Xenopus laevis oocytes; format: functional, cell-based; settings: oocyte
# [16] = target: T1, Solute carrier family 22 member 11; experiment: TP_TRANSPORTER: inhibition of E1S uptake (E1S: 0.05 uM, Indomethacin: 500 uM) in Xenopus laevis oocytes; format: functional, cell-based; settings: oocyte
# [17] = target: T1, Solute carrier family 22 member 11; experiment: TP_TRANSPORTER: inhibition of E1S uptake (E1S: 0.05 uM, DHEAS: 500 uM) in Xenopus laevis oocytes; format: functional, cell-based; settings: oocyte
# [18] = target: T1, Solute carrier family 22 member 11; experiment: TP_TRANSPORTER: inhibition of E1S uptake (E1S: 0.05 uM, BSP: 100 uM) in Xenopus laevis oocytes; format: functional, cell-based; settings: oocyte
# [19] = substrate: [H][C@@]12CC=C3C[C@@H](OS(=O)(=O)O)CC[C@]3(C)[C@@]1([H])CC[C@]1(C)C(=O)CC[C@@]21[H]; experiment: as §1; format: functional, cell-based, Oocyte
# [20] = substrate: C[C@]12CC[C@@H]3c4ccc(OS(=O)(=O)O)cc4CC[C@H]3[C@@H]1CCC2=O; experiment: as §1; format: functional, cell-based, Oocyte
molecule,measurement,setting,value
C[C@]12CC[C@@H]3c4ccc(OS(=O)(=O)O)cc4CC[C@H]3[C@@H]1CC[C@@H]2O,Activity,[1],inhibitor [(at a rough estimate) 25 % of control]
C[C@]12CC[C@@H]3c4ccc(O[C@@H]5O[C@H](C(=O)O)[C@@H](O)[C@H](O)[C@H]5O)cc4CC[C@H]3[C@@H]1CC[C@@H]2O,Activity,[2],is not an inhibitor [-]
O=C(O)[C@H]1O[C@@H](Oc2cccc3ccccc23)[C@H](O)[C@@H](O)[C@@H]1O,Activity,[3],is not an inhibitor [-]
Cc1cc(=O)oc2cc(OS(=O)(=O)O)ccc12,Activity,[4],inhibitor [(at a rough estimate) 40 % of control]
O=C(O)[C@H]1O[C@@H](OCc2cc(=O)oc3cc(O)ccc23)[C@H](O)[C@@H](O)[C@@H]1O,Activity,[5],is not an inhibitor [-]
O=C(O)[C@H]1O[C@@H](Oc2ccc([N+](=O)[O-])cc2)[C@H](O)[C@@H](O)[C@@H]1O,Activity,[6],is not an inhibitor [-]
C[C@@H]1Cc2c(Cl)cc(C(=O)N[C@@H](Cc3ccccc3)C(=O)O)c(O)c2C(=O)O1 [3R14S-OCHRATOXIN A],Activity,[7],substrate [+]
CC(=O)Nc1ccc(O[C@@H]2O[C@H](C(=O)O)[C@@H](O)[C@H](O)[C@H]2O)cc1 [ACETAMINOPHEN GLUCURONIDE],Activity,[8],is not an inhibitor [-]
Nc1ccc(C(=O)NCC(=O)O)cc1 [AMINOHIPPURIC ACID],Activity,[7],substrate [+]
CCCCNc1cc(C(=O)O)cc(S(N)(=O)=O)c1Oc1ccccc1 [BUMETANIDE],Activity,[9],inhibitor [(at a rough estimate) 15 % of control]
C[C@]12C[C@H](O)[C@H]3[C@@H](CCC4=CC(=O)CC[C@@]43C)[C@@H]1CC[C@@H]2C(=O)CO [CORTICOSTERONE],Activity,[10],inhibitor [(at a rough estimate) 30 % of control]
O=C(O)Cc1ccccc1Nc1c(Cl)cccc1Cl [DICLOFENAC],Activity,[11],inhibitor [(at a rough estimate) 5 % of control]
C[C@]12CC[C@@H]3c4ccc(O)cc4CC[C@H]3[C@@H]1CC[C@@H]2O [ESTRADIOL],Activity,[12],is not an inhibitor [-]
NS(=O)(=O)c1cc(C(=O)O)c(NCc2ccco2)cc1Cl [FUROSEMIDE],Activity,[13],inhibitor [(at a rough estimate) 5 % of control]
O=C(O)CCCC(=O)O [GLUTARATE],Activity,[14],is not an inhibitor [-]
CC(C)Cc1ccc(C(C)C(=O)O)cc1 (stereo unspecified) [IBUPROFEN],Activity,[15],inhibitor [(at a rough estimate) 10 % of control]
COc1ccc2c(c1)c(CC(=O)O)c(C)n2C(=O)c1ccc(Cl)cc1 [INDOMETHACIN],Activity,[16],inhibitor [(at a rough estimate) 5 % of control]
C[C@]12CC[C@H](OS(=O)(=O)O)CC1=CC[C@@H]1[C@@H]2CC[C@]2(C)C(=O)CC[C@@H]12 [PRASTERONE SULFURIC ACID],Activity,[17],inhibitor [(at a rough estimate) 15 % of control]
O=C1OC(c2ccc(O)c(S(=O)(=O)[O-])c2)(c2ccc(O)c(S(=O)(=O)[O-])c2)c2c(Br)c(Br)c(Br)c(Br)c21.[Na+].[Na+] [SULFOBROMOPHTHALEIN SODIUM],Activity,[18],inhibitor [(at a rough estimate) <5 % of control]
B1,Km,[19],0.63 µM
same,Km,[20],1.01 µM
